# Data as given in patent US20080312301A1, “Substituted N-Benzo[D]Isoxazol-3-Yl-Amine Compounds as Inhibitors of Mglur5, Serotonin (5-Ht) and Noradrenaline Receptors, and Uses Thereof” (Gruenenthal GmbH, priority 2005, published 2008).
# How the values were obtained:
# [1] = target: T1, 5-HT uptake (serotonin reuptake) (Rattus norvegicus, UniProt P31652); experiment: 5HT uptake inhibition in rat brain synaptosomes (medulla and pons), [3H]-5-HT; type: biochemical; conditions: for inhibition at 10 µM: conc. 10 μM
# T1 construct: from tissue; host or cells: rat medulla and pons synaptosomes (P2 fraction)
# T1 sequence (P31652 whole entry): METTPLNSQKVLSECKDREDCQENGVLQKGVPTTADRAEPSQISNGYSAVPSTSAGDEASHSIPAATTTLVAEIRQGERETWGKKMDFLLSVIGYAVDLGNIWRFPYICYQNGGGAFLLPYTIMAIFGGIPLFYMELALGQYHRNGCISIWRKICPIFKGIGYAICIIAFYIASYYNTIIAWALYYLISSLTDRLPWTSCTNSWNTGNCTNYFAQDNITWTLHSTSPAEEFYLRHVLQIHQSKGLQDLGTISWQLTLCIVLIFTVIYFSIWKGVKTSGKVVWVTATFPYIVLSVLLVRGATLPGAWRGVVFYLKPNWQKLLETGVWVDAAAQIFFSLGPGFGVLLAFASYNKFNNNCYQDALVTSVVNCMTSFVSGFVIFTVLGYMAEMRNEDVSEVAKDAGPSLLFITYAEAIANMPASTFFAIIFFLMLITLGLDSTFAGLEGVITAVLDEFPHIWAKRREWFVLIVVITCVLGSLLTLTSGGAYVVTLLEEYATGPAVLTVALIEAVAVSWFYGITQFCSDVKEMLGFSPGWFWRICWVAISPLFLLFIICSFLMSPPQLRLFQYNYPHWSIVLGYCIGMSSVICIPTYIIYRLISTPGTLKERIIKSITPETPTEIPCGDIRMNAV
# Source text: (§1) I. Method for Determining the Noradrenaline and 5HT Uptake Inhibition:
# (§2) For in vitro studies, synaptosomes were freshly isolated from rat brain areas as described in the publication “The isolation of nerve endings from brain” by E. G. Gray and V. P. Whittaker, J. Anatomy 96, pages 79-88, 1962. The corresponding literature description is introduced hereby as reference and forms part of the disclosure.
# (§3) The tissue (hypothalamus for determining the noradrenaline uptake inhibition and medulla and pons for determining the 5HT uptake inhibition) was homogenized in ice-cold 0.32 M sucrose (100 mg of tissue/1 ml) in a glass homogenizer with Teflon pestle using five full up and down strokes at 840 revolutions/minute. The homogenate was centrifuged at 1000 g and at 4° C. for 10 minutes. After subsequent centrifugation at 17 000 g for 55 minutes, the synaptosomes (P2 fraction) are obtained and were resuspended in 0.32 M […] (0.5 ml/100 mg of the original weight).
# (§4) The respective uptake was measured in a 96-well microtiter plate. The volume was 250 μl and incubation took place at room temperature (approx. 20-25° C.) under an O2 atmosphere.
# (§5) The incubation time was 7.5 minutes for [^3H]-NA and 5 minutes for [^3H]-5-HT. The 96 samples were then filtered through a Unifilter GF/B® microtiter plate (Packard) and washed with […] of incubated buffer using a “Brabdel MPXRI-96T Cell Harvester”. The Unifilter GF/B plate was dried at 55° C. for 1 h. The plate was then sealed with a Back Seal® (Packard) and 35 μl of scintillation fluid were added per well (Ultima Gold®, Packard). After sealing with a top Seal® (Packard), the radioactivity was determined, after equilibrium had been reached (about 5 h), in a “Trilux 1450 Microbeta” (Wallac).
# (§6) The amount of protein employed in the above determination corresponded to the value disclosed in the literature, as described for example in “Protein measurement with the folin phenol reagent”, Lowry et al., J. Biol. Chem., 193, 265-275, 1951. A detailed description of the method can also be found in the literature, for example from M. Ch. Frink, H.-H. Hennies, W. Engelberger, M. Haurand and B. Wilffert (1996) Arzneim.-Forsch./Drug Res. 46 (III), 11, 1029-1036. The corresponding literature descriptions are hereby introduced as reference and form part of the disclosure.
# NA transporter = target: T2, NA transporter (Rattus norvegicus, UniProt Q63380); experiment: Noradrenaline (NA) uptake inhibition in rat brain synaptosomes (hypothalamus), [3H]-NA; type: biochemical; conditions: for inhibition at 10 µM: conc. 10 μM
# T2 construct: from tissue; host or cells: rat hypothalamus synaptosomes (P2 fraction)
# T2 sequence (Q63380 1-617): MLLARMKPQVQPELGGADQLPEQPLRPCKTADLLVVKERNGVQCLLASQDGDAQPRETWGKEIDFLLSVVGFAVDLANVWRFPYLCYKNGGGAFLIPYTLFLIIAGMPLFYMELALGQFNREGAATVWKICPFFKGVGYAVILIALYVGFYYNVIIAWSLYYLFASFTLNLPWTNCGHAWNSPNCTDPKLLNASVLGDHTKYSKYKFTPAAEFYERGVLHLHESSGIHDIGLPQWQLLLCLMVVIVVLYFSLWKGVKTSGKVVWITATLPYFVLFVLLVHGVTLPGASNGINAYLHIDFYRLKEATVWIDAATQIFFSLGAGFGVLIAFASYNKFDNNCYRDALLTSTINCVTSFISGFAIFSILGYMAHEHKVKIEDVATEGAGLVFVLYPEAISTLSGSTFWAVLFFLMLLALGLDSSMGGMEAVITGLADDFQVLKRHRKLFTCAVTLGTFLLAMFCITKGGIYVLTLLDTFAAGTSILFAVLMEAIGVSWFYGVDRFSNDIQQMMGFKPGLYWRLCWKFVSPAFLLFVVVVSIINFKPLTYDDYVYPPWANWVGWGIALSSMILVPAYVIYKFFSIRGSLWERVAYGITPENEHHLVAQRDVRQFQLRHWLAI
# Source text: as §1, §2, §3, §4, §5
# The following characteristic data were found for the NA transporter:
# as §6
# mGluR5 receptor = target: T3, mGluR5 receptor (Sus scrofa, UniProt I3LUI7); experiment: Affinity for the mGluR5 receptor: displacement of 3[H]-MPEP binding in pig brain homogenate; conditions: 10 μM compound, 5 nM 3[H]-MPEP
# T3 construct: 450 μg of protein from brain homogenate are incubated with 5 nM^3[H]-MPEP; from tissue; host or cells: pig brain hemispheres without medulla, cerebellum and pons
# T3 sequence (I3LUI7 19-1212): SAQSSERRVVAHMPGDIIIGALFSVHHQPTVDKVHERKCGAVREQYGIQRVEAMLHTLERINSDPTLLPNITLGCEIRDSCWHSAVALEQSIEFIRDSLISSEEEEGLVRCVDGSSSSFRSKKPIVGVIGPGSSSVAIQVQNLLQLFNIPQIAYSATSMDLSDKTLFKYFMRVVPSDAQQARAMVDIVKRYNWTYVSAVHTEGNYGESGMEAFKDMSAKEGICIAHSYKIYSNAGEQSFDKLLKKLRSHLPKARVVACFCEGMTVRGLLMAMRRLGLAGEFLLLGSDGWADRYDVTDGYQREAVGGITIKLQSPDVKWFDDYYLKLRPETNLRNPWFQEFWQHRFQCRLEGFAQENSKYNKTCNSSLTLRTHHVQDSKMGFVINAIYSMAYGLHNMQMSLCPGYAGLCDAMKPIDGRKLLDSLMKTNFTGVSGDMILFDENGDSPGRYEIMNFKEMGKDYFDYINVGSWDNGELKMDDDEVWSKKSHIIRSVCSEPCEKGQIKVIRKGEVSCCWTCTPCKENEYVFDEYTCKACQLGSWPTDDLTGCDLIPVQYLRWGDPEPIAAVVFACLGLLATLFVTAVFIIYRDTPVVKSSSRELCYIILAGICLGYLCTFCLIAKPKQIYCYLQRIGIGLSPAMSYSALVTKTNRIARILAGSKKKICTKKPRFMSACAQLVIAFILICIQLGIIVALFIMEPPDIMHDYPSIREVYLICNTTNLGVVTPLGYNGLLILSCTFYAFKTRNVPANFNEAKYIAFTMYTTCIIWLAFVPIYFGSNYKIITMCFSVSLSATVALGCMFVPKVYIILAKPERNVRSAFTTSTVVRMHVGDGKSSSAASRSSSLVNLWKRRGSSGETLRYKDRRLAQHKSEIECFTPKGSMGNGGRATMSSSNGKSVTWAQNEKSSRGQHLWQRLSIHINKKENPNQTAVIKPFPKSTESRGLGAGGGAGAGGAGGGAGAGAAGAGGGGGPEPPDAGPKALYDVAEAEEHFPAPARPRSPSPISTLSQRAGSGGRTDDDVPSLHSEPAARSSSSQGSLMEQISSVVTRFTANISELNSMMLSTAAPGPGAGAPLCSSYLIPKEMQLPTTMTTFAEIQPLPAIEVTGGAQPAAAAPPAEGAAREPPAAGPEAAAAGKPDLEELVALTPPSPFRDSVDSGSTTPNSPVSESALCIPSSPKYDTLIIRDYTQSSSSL
# Experimental: II. Method for Determining the Affinity for the mGluR5 Receptor
# In each case 450 μg of protein from brain homogenate are incubated with 5 nM^3[H]-MPEP (Tocris, order No. R1212) (MPEP=2-methyl-6-[…]) and the compounds to be investigated (10 μM in the assay) in buffer (as above) in 250 μl incubation mixtures in 96-well microtiter plates at room temperature for 60 min.
# The filter plates were then dried at 55° C. for 60 min.
Compound,inhibition at 10 µM [1],other results
"O=C(Nc1noc2ccccc12)c1ccccc1C(F)(F)F [Example 13, N-benzo[d]isoxazol-3-yl-2-trifluoromethylbenzamide]",84%,
"O=C(Nc1noc2ccccc12)c1ccc(Cl)c(Cl)c1 [Example 14, N-benzo[d]isoxazol-3-yl-3,4-dichlorobenzamide]",69%,
"O=C(Nc1noc2ccccc12)c1cccc(F)c1F [Example 15, N-benzo[d]isoxazol-3-yl-2,3-difluorobenzamide]",86%,
"CN(C)c1cccc2onc(NC(=O)c3cccc(F)c3)c12 [Example 16, N-(4-dimethylaminobenzo[d]isoxazol-3-yl)-3-fluorobenzamide]",72%,
"O=C(Nc1noc2cc(F)ccc12)c1cccs1 [Example 17, thiophene-2-(6-fluorobenzo[d]isoxazol-3-yl)carboxamide]",,5 HT uptake inhibition [%] conc. 10 μM [1]: 77%
"CCC(C)C(=O)Nc1noc2cc(F)ccc12 (stereo not drawn) [Example 18, N-(6-fluorobenzo[d]isoxazol-3-yl)-2-methylbutyramide]",70%,
"O=C(Nc1noc2cc(Cl)ccc12)c1cccc(C(F)(F)F)c1F [Example 19, N-(6-chlorobenzo[d]isoxazol-3-yl)-2-fluoro-3-trifluoromethylbenzamide]",77%,inhibition at 10 µM (NA transporter): 63%
"COc1cccc(C(=O)Nc2noc3cc(Cl)ccc23)c1 [Example 20, N-(6-chlorobenzo[d]isoxazol-3-yl)-3-methoxybenzamide]",77%,
"CC(C)(C)c1ccc(C(=O)Nc2noc3cc(Br)ccc23)cc1 [Example 21, N-(6-bromobenzo[d]isoxazol-3-yl)-4-tert-butylbenzamide]",81%,
"COc1ccccc1C(=O)Nc1noc2cc(Br)ccc12 [Example 22, N-(6-bromobenzo[d]isoxazol-3-yl)-2-methoxybenzamide]",79%,
"O=C(Nc1noc2cc(Br)ccc12)c1ccccc1C(F)(F)F [Example 23, N-(6-bromobenzo[d]isoxazol-3-yl)-2-trifluoromethyl benzamide]",,5 HT uptake inhibition [%] conc. 10 μM [1]: 86%
"O=C(Nc1noc2cc(Br)ccc12)C1C2CC3CC(C2)CC1C3 (stereo not drawn) [Example 24, adamantane-2-(6-bromobenzo[d]isoxazol-3-yl)carboxamide]",,5 HT uptake inhibition [%] conc. 10 μM [1]: 79%
"CCC(C)C(=O)Nc1noc2cc(Br)ccc12 (stereo not drawn) [Example 25, N-(6-bromobenzo[d]isoxazol-3-yl)-2-methylbutyramide]",86%,
"O=C(Nc1noc2ccc(F)cc12)c1ccccc1C(F)(F)F [Example 26, N-(5-fluorobenzo[d]isoxazol-3-yl)-2-trifluoromethylbenzamide]",82%,
"O=C(Nc1noc2ccc(F)cc12)c1ccc(Cl)c(Cl)c1 [Example 27, 3,4-dichloro-N-(5-fluorobenzo[d]isoxazol-3-yl)benzamide]",89%,
"Cc1ccccc1C(=O)Nc1noc2ccc(F)cc12 [Example 28, N-(5-fluorobenzo[d]isoxazol-3-yl)-2-methylbenzamide]",91%,inhibition at 10 µM (mGluR5 receptor): 35%

Compound,inhibition at 10 µM [1],other results
"O=C(Nc1noc2ccc(Br)cc12)c1cc(C(F)(F)F)ccc1F [Example 29, N-(5-bromobenzo[d]isoxazol-3-yl)-2-fluoro-5-trifluoromethylbenzamide]",83%,
"O=C(Nc1noc2ccc(Br)cc12)c1ccc(F)cc1F [Example 30, N-(5-bromobenzo[d]isoxazol-3-yl)-2,4-difluorobenzamide]",79%,inhibition at 10 µM (mGluR5 receptor): 45.2%
"Cc1ccc2onc(NC(=O)c3ccccc3C(F)(F)F)c2c1 [Example 31, N-(5-methylbenzo[d]isoxazol-3-yl)-2-trifluoromethylbenzamide]",69%,
"Cc1ccc2onc(NC(=O)c3cccc(F)c3)c2c1 [Example 32, 3-fluoro-N-(5-methylbenzo[d]isoxazol-3-yl)benzamide]",89%,inhibition at 10 µM (mGluR5 receptor): 40.1%
"COc1cccc2onc(NC(=O)c3cc(C(F)(F)F)cc(C(F)(F)F)c3)c12 [Example 33, N-(4-methoxybenzo[d]isoxazol-3-yl)-3,5-bistrifluoromethyl benzamide]",,5 HT uptake inhibition [%] conc. 10 μM [1]: 85%
"COc1cccc2onc(NC(=O)c3cc(F)cc(F)c3)c12 [Example 34, 3,5-difluoro-N-(4-methoxybenzo[d]isoxazol-3-yl)benzamide]",78%,
"CN(C)c1cccc2onc(NC(=O)c3cc(C(F)(F)F)cc(C(F)(F)F)c3)c12 [Example 35, N-(4-dimethylaminobenzo[d]isoxazol-3-yl)-3,5-bistrifluoromethylbenzamide]",86%,
"O=C(Nc1noc2cccc(OCC(F)(F)F)c12)c1ccccc1Br [Example 36, 2-bromo-N-[4-(2,2,2-trifluoroethoxy)benzo[d]isoxazol-3-yl]benzamide]",84%,inhibition at 10 µM (mGluR5 receptor): 30.3%
"O=C(Nc1noc2cccc(OCC(F)(F)F)c12)c1cccc(Cl)c1 [Example 37, 3-chloro-N-[4-(2,2,2-trifluoroethoxy)benzo[d]isoxazol-3-yl]benzamide]",90%,
"CC(C)(C)c1ccc(C(=O)Nc2noc3cccc(OCC(F)(F)F)c23)cc1 [Example 38, 4-tert-butyl-N-[4-(2,2,2-trifluoroethoxy)benzo[d]isoxazol-3-yl]benzamide]",77%,
"COc1ccccc1C(=O)Nc1noc2cccc(OCC(F)(F)F)c12 [Example 39, 2-methoxy-N-[4-(2,2,2-trifluoroethoxy)benzo[d]isoxazol-3-yl]benzamide]",82%,inhibition at 10 µM (mGluR5 receptor): 30.5%
"O=C(Nc1noc2cc(Br)ccc12)c1ccc(F)c(F)c1 [Example 49, N-(6-bromobenzo[d]isoxazol-3-yl)-3,4-difluorobenzamide]",,inhibition at 10 µM (mGluR5 receptor): 36.9%; inhibition at 10 µM (NA transporter): 65%
"CN(C)c1cccc2onc(NC(=O)C3CCCCC3)c12 [Example 73, cyclohexane-(4-dimethylaminobenzo[d]isoxazol-3-yl)carboxamide]",,mGluR5 receptor inhibition of the 3[H]-MPEP binding in % (10 μM) (mGluR5 receptor): 30.05%; NA uptake inhibition [%] conc. 10 μM (NA transporter): 70%
"O=C(Nc1noc2cccc(OCC(F)(F)F)c12)c1ccc(F)cc1C(F)(F)F [Example 77, 4-fluoro-N-[4-(2,2,2-trifluoroethoxy)benzo[d]isoxazol-3-yl]-2-trifluoromethyl-benzamide]",,inhibition at 10 µM (mGluR5 receptor): 38%; inhibition at 10 µM (NA transporter): 70%
"O=C(Nc1noc2cccc(OCC(F)(F)F)c12)c1ccc(F)c(F)c1 [Example 82, 3,4-difluoro-N-[4-(2,2,2-trifluoroethoxy)benzo[d]isoxazol-3-yl]benzamide]",,inhibition at 10 µM (mGluR5 receptor): 42%; inhibition at 10 µM (NA transporter): 68%
furan-2-(4-dimethylaminobenzo[d]isoxazol-3-yl)carboxamide [Example 75],,NA uptake inhibition [%] conc. 10 μM (NA transporter): 64%
